In ChEMBL document CHEMBL2074004, “P-glycoprotein-dependent disposition kinetics of tacrolimus: studies in mdr1a knockout mice” (Pharm Res, 1999):

Assays:
[1] = target: T1, ATP-dependent translocase ABCB1 (Mus musculus, UniProt P21447); assay: TP_TRANSPORTER: increase in brain concentration in mdr1a(-/-) mouse; format: functional, organism-based; conditions: in vivo
[2] = target: T1, ATP-dependent translocase ABCB1; assay: TP_TRANSPORTER: increase in blood concentration in mdr1a(-/-) mouse; format: functional, organism-based; conditions: in vivo

T1 sequence (P21447 whole entry): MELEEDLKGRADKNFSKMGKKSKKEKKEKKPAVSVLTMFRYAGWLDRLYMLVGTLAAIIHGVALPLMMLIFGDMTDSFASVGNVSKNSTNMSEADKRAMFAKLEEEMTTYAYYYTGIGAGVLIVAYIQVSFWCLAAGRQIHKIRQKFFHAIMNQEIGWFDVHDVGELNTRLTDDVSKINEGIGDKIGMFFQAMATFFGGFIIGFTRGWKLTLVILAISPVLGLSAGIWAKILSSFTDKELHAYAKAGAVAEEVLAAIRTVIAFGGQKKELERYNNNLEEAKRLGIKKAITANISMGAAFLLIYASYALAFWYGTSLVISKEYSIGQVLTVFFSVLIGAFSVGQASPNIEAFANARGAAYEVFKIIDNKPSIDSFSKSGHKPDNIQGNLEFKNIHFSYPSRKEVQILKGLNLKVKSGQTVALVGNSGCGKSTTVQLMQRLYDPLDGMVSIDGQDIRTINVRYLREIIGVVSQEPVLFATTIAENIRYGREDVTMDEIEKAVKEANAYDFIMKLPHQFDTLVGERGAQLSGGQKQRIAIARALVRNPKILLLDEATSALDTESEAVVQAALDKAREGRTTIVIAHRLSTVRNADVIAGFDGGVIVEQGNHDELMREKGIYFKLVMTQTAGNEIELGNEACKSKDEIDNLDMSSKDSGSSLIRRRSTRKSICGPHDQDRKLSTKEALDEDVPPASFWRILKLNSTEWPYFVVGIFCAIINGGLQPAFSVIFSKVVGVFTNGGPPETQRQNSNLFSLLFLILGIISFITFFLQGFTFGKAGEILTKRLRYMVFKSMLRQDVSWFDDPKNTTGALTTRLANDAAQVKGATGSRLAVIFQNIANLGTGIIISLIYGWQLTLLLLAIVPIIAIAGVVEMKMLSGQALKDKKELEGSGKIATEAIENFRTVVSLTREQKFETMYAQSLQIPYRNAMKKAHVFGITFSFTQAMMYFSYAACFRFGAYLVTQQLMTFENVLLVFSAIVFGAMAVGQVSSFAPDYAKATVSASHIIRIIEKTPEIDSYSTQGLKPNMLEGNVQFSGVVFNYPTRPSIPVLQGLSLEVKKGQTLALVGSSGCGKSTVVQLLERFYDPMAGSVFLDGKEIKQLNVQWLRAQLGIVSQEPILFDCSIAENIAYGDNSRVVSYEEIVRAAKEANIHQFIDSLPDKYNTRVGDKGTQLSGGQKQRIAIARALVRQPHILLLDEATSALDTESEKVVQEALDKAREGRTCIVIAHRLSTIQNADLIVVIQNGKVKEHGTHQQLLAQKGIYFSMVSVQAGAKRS

In the case of `C=CC[C@@H]1/C=C(\C)C[C@H](C)C[C@H](OC)[C@H]2O[C@@](O)(C(=O)C(=O)N3CCCC[C@H]3C(=O)O[C@H](/C(C)=C/[C@@H]3CC[C@@H](O)[C@H](OC)C3)[C@H](C)[C@@H](O)CC1=O)[C@H](C)C[C@@H]2OC` [TACROLIMUS ANHYDROUS], the Activity [1] is reported as “substrate [+]” and the Activity [2] is reported as “substrate [+]”.
